Calls of active or inactive are those of the source. No cut-off for these calls is given here.
Legend:
MC3T3-E1 [1] = test: Induction of osteoblast differentiation in […] MC3T3-E1 cells assessed as increase in Dlx5 mRNA expression at 5 uM after 4 days by RT-PCR method; format: functional, cell-based
MC3T3-E1 [2] = test: Induction of osteoblast differentiation in […] MC3T3-E1 cells assessed as increase in Runx2 mRNA expression at 5 uM after 4 days by RT-PCR method; format: functional, cell-based
MC3T3-E1 [3] = test: Induction of osteoblast differentiation in […] MC3T3-E1 cells assessed as increase in osteocalcin mRNA expression at 5 uM after 4 days by RT-PCR method; format: functional, cell-based
MC3T3-E1 [4] = test: Induction of osteoblast differentiation in […] MC3T3-E1 cells assessed as increase in ALP mRNA expression at 5 uM after 4 days by RT-PCR method; format: functional, cell-based
C3H 10T1/2 [5] = test: Induction of osteoblast differentiation in mouse C3H10T1/2 cells assessed as increase in osteocalcin mRNA expression at 5 uM after 4 days by RT-PCR method; format: functional, cell-based
C3H 10T1/2 [6] = test: Induction of osteoblast differentiation in mouse C3H10T1/2 cells assessed as increase in Runx2 mRNA expression at 5 uM after 4 days by RT-PCR method; format: functional, cell-based
C3H 10T1/2 [7] = test: Cytotoxicity against mouse C3H10T1/2 cells assessed as reduction in cell viability up to 5 uM after 48 hrs by MTT assay; format: cell-based; conditions: c3h 10t1/2, 48 h
[8] = Solubility of the compound in DMSO; format: physicochemical
C3H 10T1/2 [9] = test: Induction of osteoblast differentiation in mouse C3H10T1/2 cells assessed as increase in Dlx5 mRNA expression at 5 uM after 4 days by RT-PCR method; format: functional, cell-based
C3H 10T1/2 [10] = test: Induction of osteoblast differentiation in mouse C3H10T1/2 cells assessed as increase in ALP mRNA expression at 5 uM after 4 days by RT-PCR method; format: functional, cell-based
MC3T3-E1 [11] = test: Induction of mineralization in […] MC3T3-E1 cells at 5 uM after 14 days by alizarin red S staining based assay; format: functional, cell-based
MC3T3-E1 [12] = test: Induction of osteoblast differentiation in […] MC3T3-E1 cells assessed as increase in ALP activity at 5 uM after 4 days using BCIP/NBT liquid substrate; format: functional, cell-based

solubility [8]	Structure (SMILES)	Activity (MC3T3-E1 [1])	Activity (MC3T3-E1 [2])	Activity (MC3T3-E1 [3])	Activity (MC3T3-E1 [4])	Activity (C3H 10T1/2 [5])	Activity (C3H 10T1/2 [6])	Activity (C3H 10T1/2 [7])	Activity (C3H 10T1/2 [9])	Activity (C3H 10T1/2 [10])	Activity (MC3T3-E1 [11])	Activity (MC3T3-E1 [12])
Soluble	COc1cc([C@H]2CC(=O)O[C@H]2C)ccc1O [CURCULACTONE A]	Active	Active	Active	Active	Active	Active	Non-Toxic	Active	Active	Active	Active
Soluble	COc1cc(O)cc([C@@H]2CC(=O)O[C@H]2C)c1 [CURCULACTONE B]	Active	Active	Active	Active	Active	Active	Non-Toxic	Active	Active	Active	Active

— ChEMBL document CHEMBL3994621, “Curculactones A and B induced the differentiation of C3H10T1/2 and MC3T3-E1 cells to osteoblasts” (Bioorg Med Chem Lett, 2017)
